Test results from patent publication US11459323B2, “Monocyclic β-lactam compound for treating bacterial infection” (MEDSHINE DISCOVERY INC., priority 2018, dated 2022).
Values after ≈ are worked out from the molar mass of the structure shown. Like-named read-outs stand apart in the source and are kept apart here.

Experiments:
P. aeruginosa ATCC 35151 = assay: MIC by micro-liquid dilution method (CLSI); type: cell-based; settings: Pseudomonas aeruginosa
[1] = test system: K. pneumoniae ATCC BAA-205 (TEM-1/SHV-1/SHV-12); assay: MIC by micro-liquid dilution method (CLSI); type: cell-based, Klebsiella pneumonia; settings: Klebsiella pneumoniae, ATCCBAA205; K. pneumoniae ATCCBAA-205; read-out: MIC
E. coli ATCC 25922 = assay: MIC by micro-liquid dilution method (CLSI); type: cell-based; settings: Escherichia coli
[2] = test system: K. pneumoniae ATCC BAA-2470 (NDM-1); assay: MIC by micro-liquid dilution method (CLSI); type: cell-based, Klebsiella pneumonia; settings: Klebsiella pneumoniae, ATCCBAA2470; K. pneumoniae ATCCBAA-2470; read-out: MIC
[3] = test system: K. pneumoniae ATCC BAA-1705 (KPC-2); assay: MIC by micro-liquid dilution method (CLSI); type: cell-based, Klebsiella pneumonia; settings: Klebsiella pneumoniae, ATCCBAA1705; K. pneumoniae ATCCBAA-1705; read-out: MIC
P. aeruginosa PA 14 = assay: MIC by micro-liquid dilution method (CLSI); type: cell-based; settings: Pseudomonas aeruginosa, PA14; P. aeruginosa PA 14; read-out: MIC
From the text: (§1) Three strains of Klebsiella pneumonia, K. pneumoniae ATCC BAA-205 (TEM-1/SHV-1/SHV-12), K. pneumoniae ATCC BAA-1705 (KPC-2), K. pneumoniae ATCC BAA-2470 (NDM-1); three strains of Pseudomonas aeruginosa, P. aeruginosa NCTC13437 (VIM-10; VEB-1), P. aeruginosa PA 14 and P. aeruginosa ATCC 35151; four strains of Escherichia coli, E. coli NCTC 13476 (IMP-1 type), E. coli ATCC BAA-2523 (OXA-48), E. coli MG1655Δtol C, E. coli ATCC 25922; one strain of Acinetobacter baumannii, A. baumannii ATCC 17978 and one strain of Staphylococcus aureus, S. aureus NRS384 were used to determine the minimum inhibitory concentration (MIC) of the compounds by micro-liquid dilution method according to the Institute of Clinical and Laboratory Standard (CLSI) requirements.

E. coli MG1655Δtol C = assay: MIC by micro-liquid dilution method (CLSI); type: cell-based; settings: Escherichia coli
From the text: as §1

[4] = test system: E. coli ATCC BAA-2523 (OXA-48); assay: MIC by micro-liquid dilution method (CLSI); type: cell-based; settings: Escherichia coli, ATCCBAA2523
From the text: as §1

A. baumannii ATCC 17978 = assay: MIC by micro-liquid dilution method (CLSI); type: cell-based; settings: Acinetobacter baumannii; A. baumannii ATCC17978; read-out: MIC
[5] = test system: Acinetobacter baumannii ATCC-BAA-1789; assay: MIC on Acinetobacter baumannii strains; type: cell-based; settings: ATCCBAA1789
From the text: (§2) Twelve strains of Acinetobacter baumannii, A. baumannii ATCC 17978 (ATCC-BAA-1605, ATCC-BAA-1789, ATCC-BAA-1790, ATCC-BAA-1791, ATCC-BAA-1792, ATCC-BAA-1793, ATCC-BAA-1794, ATCC-BAA-1795, ATCC-BAA-1799, ATCC-BAA-1800, ATCC 19606, ATCC 17978) were used to determine the minimum inhibitory concentration (MIC) of the compounds by micro-liquid dilution method according to the Institute of Clinical and Laboratory Standard (CLSI) requirements.

[6] = test system: Acinetobacter baumannii ATCC-BAA-1800; assay: MIC on Acinetobacter baumannii strains; type: cell-based; settings: ATCCBAA1800, ATCC-BAA-1800, read-out: MIC
From the text: as §2

[7] = test system: Acinetobacter baumannii ATCC-BAA-1799; assay: MIC on Acinetobacter baumannii strains; type: cell-based; settings: ATCCBAA1799, ATCC-BAA-1799, read-out: MIC
From the text: as §2

[8] = test system: Acinetobacter baumannii ATCC-BAA-1793; assay: MIC on Acinetobacter baumannii strains; type: cell-based; settings: ATCCBAA1793, ATCC-BAA-1793, read-out: MIC
From the text: as §2

[9] = test system: Acinetobacter baumannii ATCC 19606; assay: MIC on Acinetobacter baumannii strains; type: cell-based; settings: ATCC19606
From the text: as §2

[10] = test system: Acinetobacter baumannii ATCC-BAA-1605; assay: MIC on Acinetobacter baumannii strains; type: cell-based; settings: ATCCBAA1605, ATCC-BAA-1605, read-out: MIC
From the text: as §2

[11] = test system: Acinetobacter baumannii ATCC-BAA-1792; assay: MIC on Acinetobacter baumannii strains; type: cell-based; settings: ATCCBAA1792, ATCC-BAA-1792, read-out: MIC
From the text: as §2

[12] = test system: Acinetobacter baumannii ATCC-BAA-1790; assay: MIC on Acinetobacter baumannii strains; type: cell-based; settings: ATCCBAA1790, ATCC-BAA-1790, read-out: MIC
From the text: as §2

[13] = test system: Acinetobacter baumannii ATCC-BAA-1795; assay: MIC on Acinetobacter baumannii strains; type: cell-based; settings: ATCCBAA1795
From the text: as §2

[14] = test system: Acinetobacter baumannii ATCC-BAA-1791; assay: MIC on Acinetobacter baumannii strains; type: cell-based; settings: ATCCBAA1791
From the text: as §2

[15] = test system: Acinetobacter baumannii ATCC 17978; assay: MIC on Acinetobacter baumannii strains; type: cell-based; settings: ATCC17978
From the text: as §2

[16] = test system: Acinetobacter baumannii ATCC-BAA-1794; assay: MIC on Acinetobacter baumannii strains; type: cell-based; settings: ATCCBAA1794, ATCC-BAA-1794, read-out: MIC
From the text: as §2

[17] = test system: E. coli NCTC 13476 (IMP-1 type); assay: MIC by micro-liquid dilution method (CLSI); type: cell-based; settings: Escherichia coli; E. coli NCTC13476; read-out: MIC
From the text: as §1

Row | SMILES | MIC [1] [µg/mL] | MIC [2] [µg/mL] | MIC [3] [µg/mL] | MIC (P. aeruginosa PA 14) [µg/mL] | MIC (E. coli MG1655Δtol C) [µg/mL] | MIC (A. baumannii ATCC 17978) [µg/mL] | MIC [5] [µg/mL] | MIC [6] [µg/mL] | MIC [7] [µg/mL] | MIC [8] [µg/mL] | MIC [9] [µg/mL] | MIC [10] [µg/mL] | MIC [11] [µg/mL] | MIC [12] [µg/mL] | MIC [13] [µg/mL] | MIC [14] [µg/mL] | MIC [15] [µg/mL] | MIC [16] [µg/mL] | also measured
1 | CC1(C)[C@H](NC(=O)/C(=N\OCCOc2ccc3c(c2)CCN(C(=N)N)C3)c2csc(N)n2)C(=O)N1OS(=O)(=O)O [Compound 3] | 8 (≈ 13.4 µM) | 2 (≈ 3.35 µM) | 4 (≈ 6.7 µM) | 4 (≈ 6.7 µM) | ≤ 0.0039 | 2 (≈ 3.35 µM) | 16 (≈ 26.8 µM) | 8 (≈ 13.4 µM) | 16 (≈ 26.8 µM) | 8 (≈ 13.4 µM) | 8 (≈ 13.4 µM) | 16 (≈ 26.8 µM) | 16 (≈ 26.8 µM) | 16 (≈ 26.8 µM) | 8 (≈ 13.4 µM) | 16 (≈ 26.8 µM) | 4 (≈ 6.7 µM) | 8 (≈ 13.4 µM) | MIC (P. aeruginosa ATCC 35151; P. aeruginosa ATCC35151, read-out: MIC): 0.0625 µg/mL (≈ 0.105 µM); MIC (E. coli ATCC 25922; E. coli ATCC25922, read-out: MIC): 0.25 µg/mL (≈ 0.419 µM); MIC ([4]; E. coli ATCCBAA-2523, read-out: MIC): 0.25 µg/mL (≈ 0.419 µM)
2 | CC1(C)[C@H](NC(=O)/C(=N\OCCOc2ccc3c(c2)CCN(C(=N)NCCCN)C3)c2csc(N)n2)C(=O)N1OS(=O)(=O)O [Compound 4] | 8 (≈ 12.2 µM) | 0.5 (≈ 0.765 µM) | 1 (≈ 1.53 µM) | 1 (≈ 1.53 µM) | ≤ 0.125 | 0.5 (≈ 0.765 µM) | 4 (≈ 6.12 µM) | 8 (≈ 12.2 µM) | 4 (≈ 6.12 µM) | 4 (≈ 6.12 µM) | 8 (≈ 12.2 µM) | 8 (≈ 12.2 µM) | 4 (≈ 6.12 µM) | 4 (≈ 6.12 µM) | 4 (≈ 6.12 µM) | 2 (≈ 3.06 µM) | 0.5 (≈ 0.765 µM) | 4 (≈ 6.12 µM) | MIC (P. aeruginosa ATCC 35151; ATCC35151): ≤ 0.125 µg/mL; MIC (E. coli ATCC 25922; ATCC25922): ≤ 0.125 µg/mL; MIC [17]: 0.25 µg/mL (≈ 0.382 µM); MIC [4]: ≤ 0.125 µg/mL
3 | CC1(C)[C@H](NC(=O)/C(=N\OCCOc2ccc3c(c2)CC[N+](C)(CCCN)C3)c2csc(N)n2)C(=O)N1OS(=O)(=O)[O-] (stereo partly shown) [Compound 5] |  |  |  |  |  |  | 8 (≈ 12.8 µM) | 16 (≈ 25.6 µM) | 16 (≈ 25.6 µM) | 16 (≈ 25.6 µM) | 16 (≈ 25.6 µM) | 16 (≈ 25.6 µM) | 16 (≈ 25.6 µM) | 8 (≈ 12.8 µM) | 16 (≈ 25.6 µM) | 2 (≈ 3.2 µM) | 1 (≈ 1.6 µM) | 16 (≈ 25.6 µM) | 
